Experimental data from patent US20130184318A1, “[…] […]” (THE REGENTS OF THE UNIVERSITY OF CALIFORNIA, priority 2010, published 2013).

Tests used:
Type in all cases: cell-based, human
[1] = test system: HTM cells; test: Confocal/fluorescence imaging of HTM cell morphology on latrunculin exposure and recovery; settings: for cell morphology: 0.2 μM latrunculin
Method: (§1) Primary HTM cells were obtained from corneal buttons from donors with no ocular diseases and that were not suitable for transplant. […] Cells were plated onto glass surfaces at 100,000 cells per surface. A similar number of cells were plated onto the biomimetic PA hydrogels. The cells were allowed to attach to the surfaces for 12 hours prior to the start of the experiment. Fluorescent images of the actin cytoskeleton were obtained from fixed cells stained with phalloidin-AlexaFluor 568 (Invitrogen, Carlsbad, Calif.). Fluorescent images of the cell membrane were obtained from live cells stained with wheat germ agglutinin-AlexaFluor 488 (Invitrogen).
Latrunculin B influences cytoskeleton of cells by associating with actin. […] The micrographs were taken with a confocal AFM. The live HTM cells were labeled with fluorescent wheat germ agglutinin and the latrunculin was added. […] Measurements of compliance were taken prior to the introduction of drug, and at the 30 minute time point. The cells had moduli of 2.0 kPa prior to addition of latrunculin, and 0.07 kPa at 30 minutes. The concentration of drug used was not in the range of 1-100 μM used in other published studies. It should be noted, however, that the higher ranges (100 μM) were topically applied to primate eyes (20 μl) in one bolus while our studies had the drug present during the entire one hour time period. The effects of the latrunculin were profound.
The morphology of HTM cells adhered to glass and the glaucomatous (pathomimetic)polyacrylamide gel (PPA, 92.2±10.4 kPa) substrates were predominantly elongated with pronounced asymmetry. On the homeomimetic polyacrylamide gel (HPA, 4.0±1.5 kPa), the cells were predominantly adhered in a radially symmetric fashion and were considerably rounder in appearance (See, FIGS. 6 and 10). When exposed to Lat-B, HTM cells on glass and PPA substrates responded in a similar fashion to other cell types previously studied (Spector, et al., (1983) Science 219:493-495, Wakatsuki, et al., (2001) Journal of Cell Science 114:1025-1036, Coue, et al., (1987) Febs Letters 213:316-318; Cha, et al., (2004) J Cell Sci 117:3353-3365). Lat-B disrupted the dynamic process of actin filament maintenance and the actin polymerization process rapidly shifted towards net depolymerization. […] These strands resembled retraction fibers observed during mitosis (Sanger, et al., (1984) Cell Tissue Res 237:409-417). Similar cable-like filaments have also been reported by Evanko, et. al., (J Histochem Cytochem (2009) 57:1041-1060).

[2] = test system: HTM cells; test: AFM measurement of Young's modulus (compliance) of HTM cells before and after Lat-B exposure; settings: for HTM Cell Modulus on Substrates, Glass: glass (GPa range), pre-dose 2.7 ± 0.7; for HTM Cell Modulus on Substrates, Homeomimetic: homeomimetic gel E = 4.0 ± 1.5 kPa, pre-dose 1.6 ± 0.2; for HTM Cell Modulus on Substrates, Pathomimetic: pathomimetic gel E = 92 ± 10 kPa, pre-dose 1.8 ± 0.5
Method: as §1
The PA gels were then adhered to UV-cleaned, glass-bottom petri dishes (World Precision Instruments, Sarasota, Fla.), incubated in HTM medium for 12 hours, and then coated with a mixture of fibronectin and collagen (FNC coating mix, Athena Environmental Sciences, Baltimore, Md.) for 10 minutes prior to cell seeding. HTM cells were added to these dishes in media and were allowed to incubate overnight to ensure proper cell adhesion to the FNC-coated PA gels. Immediately prior to AFM measurements, the HTM media was rinsed away with PBS. This was done because fetal bovine serum is known to inactivate Lat-B (Spector, et al., (1989) Cell Motil Cytoskeleton 13:127-144).
The contact mechanics of the PA substrates and the HTM cells were studied with two MFP-3D atomic force microscopes (Asylum Research, Santa Barbara, Calif.) interfaced with either an Olympus (FluoView 1000 laser scanning confocal microscope, Olympus America, Center Valley, Pa.) or Zeiss (Axio Observer A1, Carl Zeiss, Thornwood, N.Y.) inverted microscope. No differences in contact mechanics of the samples were observed between the two instruments. The AFM probes in the substrate studies were silicon nitride cantilevers (PNP-TR-50, k=60 pN/nm, NanoAndMore, Lady's Island, S.C.) with a square pyramid tip incorporated at the free end. For each experiment, the actual spring constant of the cantilever was determined by monitoring the amplitude of the lever's thermal vibration at resonance and applying the equipartition theorem (Hutter, et al., (1993) Review of Scientific Instruments 64:3342-3342). Probe indentation measurements were obtained over the central region of the cell where the nucleus was present.
Compliance of the HTM cells and PA gels was quantified by fitting the force, generated by the indenting probe, vs. the depth of indentation with equation 1 (Hertz, H. (1882) J. Reine Angew. Mathematik 92:156-171; Love, A. E. H. (1939) Quarterly Journal of Mathematics 10:161-175; Harding, et al., (1945) Proceedings of the cambridge philosophical society 41:16-26).
Where α is the half-angle opening of the square pyramid tip (35°), ν is Poisson's ratio, E is Young's modulus and δ is the penetration depth. By using Eq. 1, we have assumed that the HTM cells and PA gels were perfectly elastic, isotropic, and infinitely thick and that the square pyramid indenter was a rigid cone. A Poisson ratio of 0.5 (incompressible) for both the cell and polyacrylamide gels was assigned, since both samples were well hydrated. This allows a solution for Young's modulus of the sample.
Application of Eq. 1 is not straightforward, as both the cells and gels were not perfectly elastic or isotropic, they were viscoelastic and anisotropic, and they were also not infinitely thick. However, in the limit of small indentations both the cells and gels were well described by Eq. 1. The method proposed by Mahaffey et al., (Phys Rev Lett (2000) 85:880-883) was applied to quantitatively define the indentation depth over which these viscoelastic materials behave as elastic bodies. This is accomplished by plotting experimental values of E vs. δ during tip indentation and noting the penetration depth over which E remains constant. […]

[3] = test system: myocilin; test: Western blot of myocilin protein in HTM 631 cells; settings: HTM 631 cells on 400 nm pitch surfaces with dexamethasone
Method: Protein concentration is assessed using the Bradford protein assay. Samples of 10 μg are electrophoresed on a 10% polyacrylamide gel and the protein transferred to nitrocellulose membranes as previously described^141. Antibodies for the proteins being detected are commercially available or publicly described. A chemiluminescent detection method is used with peroxidase linked antibodies to mouse, chick or rabbit in conjunction with the LumiGLO chemiluminesent kit. The banding pattern obtained on the x-ray film is quantified using ImageQuant software with the actin band serving as a normalized reference for protein loading. Imaging can also be done using a CCD camera without the use of x-ray film.

Compound	cell morphology ([1]; 30 minutes, listed as Latrunculin)	cell morphology ([1]; 30 minutes, listed as latrunculin)	cell morphology ([1]; one hour)	time to return to pre-exposure morphology after rinsing Lat-B ([1]; glass and PPA substrates)	modulus of the cells ([2]; 0.2 μM latrunculin, measured after 30 minutes, 2.0 kPa before addition)	cell resistance to deformation compared to pre-exposure levels ([2]; at 30 minutes of Lat-B exposure (0.2 μM))	HTM Cell Modulus on Substrates, Glass ([2]; 90 min recovery after 30 min 0.2 μM Lat-B and removal)	HTM Cell Modulus on Substrates, Glass ([2]; 90 min recovery after 30 min 0.2 μM Lat-B and removal, listed as Lat-B)	HTM Cell Modulus on Substrates, Glass ([2]; 270 min recovery after 30 min 0.2 μM Lat-B and removal)	HTM Cell Modulus on Substrates, Glass ([2]; 270 min recovery after 30 min 0.2 μM Lat-B and removal, listed as Lat-B)	HTM Cell Modulus on Substrates, Homeomimetic ([2]; 90 min recovery after Lat-B)	HTM Cell Modulus on Substrates, Homeomimetic ([2]; 270 min recovery after Lat-B)	percentage difference in cell elastic modulus, PPA to HPA ([2]; maximum, at 90 minutes of recovery from Lat-B)	HTM Cell Modulus on Substrates, Pathomimetic ([2]; 90 min recovery after Lat-B)	HTM Cell Modulus on Substrates, Pathomimetic ([2]; 270 min recovery after Lat-B)	increase in myocilin protein expression [3]
C/C1=C/C(=O)O[C@@H]2C[C@@H](CC[C@H](C)/C=C\CC1)O[C@@](O)([C@@H]1CSC(=O)N1)C2 [Latrunculin B]	rounding of the cells	starting to round up	completely rounded	60-90 minutes	0.07 kPa	substantially decreased	11.0 ± 2.3 kPa	11.0±2.3 kPa	2.3 ± 0.2 kPa	2.3±0.2 kPa	2.3 ± 0.2 kPa	1.7 ± 0.5 kPa	approximately 54%	4.0 ± 1.8 kPa	2.0 ± 0.4 kPa	–
C[C@@H]1C[C@H]2[C@@H]3CCC4=CC(=O)C=C[C@]4(C)[C@@]3(F)[C@@H](O)C[C@]2(C)[C@@]1(O)C(=O)CO [dexamethasone]	–	–	–	–	–	–	–	–	–	–	–	–	–	–	–	19 fold
